Measurements published in patent publication US7499894B2, “Cerebral programming” (priority 2001, dated 2009).

Assays:
[1] = tested on: cultured cortical network; conditions: perfusion with APV and CNQX together; many published reports; cited from earlier work
[2] = tested on: cultured network of cortical neurons; experiment: Spiking activity of cultured cortical network, intracellular and MEA recordings; type: cell-based, rat; conditions: all three applied together: 5 μM bicuculin, 10 μM DNQX and 20 μM APV; cortical neurons from newborn rats on MEA
Description: Culture techniques. Cortical neurons are obtained from newborn rats within 24 hours from birth, following standard procedures. The cortex tissue is digested enzymatically and mechanically dissociated. The neurons are plated directly onto substrate-integrated multi-electrode array (MEA) dishes (see below). The cultures are bathed in MEM supplemented with heat-inactivated horse serum (5%), Glutamine (0.5 mM), Glucose (20 mM), and Gentamycin (10 μg/ml), and maintained in an atmosphere of 37° C., 5% CO2 and 95% air in a tissue culture incubator and during the recording phases. Half of the medium is exchanged twice a week. Experiments are performed in the third week after plating, thus allowing complete maturation of the neurons.
The electrical activity of the cultured network is dependent upon synaptic transmission: there are many published reports showing that the electrical activity in a cultured cortical network may be blocked by perfusion with the N-Methyl-D-aspartate (NMDA) receptor antagonist D-2-amino-5-phosphonovalerate (APV) and non-NMDA receptor antagonist 6-cyano-7-nitroquinoxaline-2,3-dion (CNQX). We repeated these experiments, using intracellular recordings as well as MEA recordings.
Electrophysiological methods. We use arrays of 60 Ti/Au/TiN electrodes, 30 μm in diameter, spaced 200 μm from each other (MultiChannelSystems (MCS), Reutlingen, Germany). The insulation layer (silicon nitride), is pretreated with poly-L-lysine forming a good surface for network development. A commercial 60-channel amplifier (B-MEA-1060, MCS, Reutlingen, Germany) with frequency limits of 10-3000 Hz and a gain of ×1024 is used. The B-MEA-1060 is connected to MCPPlus filter amplifiers (Alpha Omega, Nazareth, Israel) for further amplification (×10 to ×20). Stimulation through the MEA is performed using a dedicated 8-channel stimulus generator (MCS, Reutlingen, Germany). Micro-incubation environment is arranged, to support long-term recordings from MEA dishes. […]

SMILES | electrical activity in a cultured cortical network [1] | spiking activity within the cultured network [2]
N[C@H](CCCP(=O)(O)O)C(=O)O [APV, D-2-amino-5-phosphonovalerate] | blocked | completely abolished
N#Cc1cc2c(cc1[N+](=O)[O-])=NC(=O)C(=O)N=2 [CNQX, 6-cyano-7-nitroquinoxaline-2,3-dion] | blocked | 
O=[N+]([O-])c1cc2nc(O)c(O)nc2cc1[N+](=O)[O-] [DNQX] |  | completely abolished
CN1CCc2cc3c(cc2[C@H]1[C@@H]1OC(=O)c2c1ccc1c2OCO1)OCO3 [bicuculin] |  | completely abolished
